From PubChem BioAssay (NCI)
“And” between values parts separate entries of the source, which are not always exact repeats. Equal values may be shown once.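 Step 1: Grow cells in 96-well plates. Step 2: Expose to compound for 48 hours at 5 concentrations. Step 3: Interpolate endpoints linearly; if unreached, use highest concentration. GI50 is the concentration that inhibits growth by half. Definition used: TGI = concentration required for complete inhibition of growth.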 *1 amine or outer side, *2 acyl side, *3 side chain or, on linkers, in order; H or OH if unused. Where a SMILES comes first, the peptide text is derived from it. Bridges are numbered along the chain shown (N, C = ends). [ ]: non-standard residue; d: D form. ξ: configuration not given here. X4 = CCC(C)C(N[*:1])C(O)CC(=O)O[C@H](C(=O)C(C)C(=O)[*:2])C(C)C; NMeY = CN[C@@H](Cc1ccc(O)cc1)C(=O)O; X9 = O=C([C@@H]1CC(O)CN1[*:1])[*:2]; ξNMeL = CNC(CC(C)C)C(=O)O; ξT = CC(O)C(N)C(=O)O

Assays:
Assay in all cases: DTP human tumour cell line panel, 48 h
A549 NSCLC = test system: A549 NSCLC
M14 melanoma = test system: M14 melanoma
MCF7 breast = test system: MCF7 breast
U251 CNS = test system: U251 CNS
SK-MEL-5 melanoma = test system: SK-MEL-5 melanoma
HL-60(TB) leukemia = test system: HL-60(TB) leukemia
SK-MEL-2 melanoma = test system: SK-MEL-2 melanoma
MDA-MB-231 breast = test system: MDA-MB-231 breast
EKVX NSCLC = test system: EKVX NSCLC
HT29 colon = test system: HT29 colon

Structure (SMILES) | GI50 (A549 NSCLC) | TGI (A549 NSCLC) | GI50 (M14 melanoma) | TGI (M14 melanoma) | GI50 (MCF7 breast) | TGI (MCF7 breast) | GI50 (U251 CNS) [µM] | TGI (U251 CNS) | GI50 (SK-MEL-5 melanoma) [µM] | TGI (SK-MEL-5 melanoma) | GI50 (HL-60(TB) leukemia) | TGI (HL-60(TB) leukemia) | GI50 (SK-MEL-2 melanoma) [µM] | TGI (SK-MEL-2 melanoma) | GI50 (MDA-MB-231 breast) | TGI (MDA-MB-231 breast) | GI50 (EKVX NSCLC) | TGI (EKVX NSCLC) | GI50 (HT29 colon) | TGI (HT29 colon)
COc1cc2c(/C=C3/C(=O)Nc4ccccc43)c(Cl)n(Cc3ccccc3)c2cc1C | > 100 µM | > 100 µM | > 100 µM | > 100 µM | > 100 µM | > 100 µM | > 100 | > 100 µM | 42.2 | > 100 µM | 6.61 µM | > 100 µM | > 100 | > 100 µM | > 100 µM | > 100 µM | > 100 µM | > 100 µM | – | –
O=c1cc/c(=N\Nc2ccccc2)c(=O)/c1=N/Nc1ccccc1 | > 50 µM | > 50 µM | > 50 µM | > 50 µM | – | – | > 50 | > 50 µM | > 50 | > 50 µM | > 50 µM | > 50 µM | > 50 | > 50 µM | > 50 µM | > 50 µM | > 50 µM | > 50 µM | > 50 µM | > 50 µM
[N-]=[N+]=Nc1ncc(-c2ccc(C(F)(F)F)cc2)c(NC2CCCCCC2)n1 | > 10 µM | > 10 µM | > 10 µM | > 10 µM | > 10 µM | > 10 µM | > 10 | > 10 µM | > 10 | > 10 µM | > 10 µM | > 10 µM | > 10 | > 10 µM | > 10 µM | > 10 µM | – | – | > 10 µM | > 10 µM
CCCCCCn1c(-c2ccc(C(=O)O/N=C(\N)c3ccc(OC)cc3)cc2)nc(-c2ccccc2)c1-c1ccccc1 | 0.777 µM | 3.36 µM | – | – | 1.61 µM | 3.72 µM | 1.62 | 4.21 µM | 1.92 | 3.71 µM | – | – | 2.93 | 9.46 µM | 1.61 µM | 3.69 µM | 1.7 µM | 3.38 µM | 2.67 µM | > 100 µM
OCCNc1nc(NCCO)nc(Nc2ccc(C3=NN(c4cc(Cl)cc(Cl)c4)C(c4ccc(Cl)cc4)C3)cc2)n1 (stereo not given) | 1.96 µM | 4.45 µM | 1.69 µM | 3.23 µM | 1.42 µM | 3.31 µM | 1.51 | 3.04 µM | 1.81 | 3.37 µM | 1.86 µM | 3.85 µM | 2.13 | 4.57 µM | 1.71 µM | 3.42 µM | 2.04 µM | 4.72 µM | – | –
CCC(C)C1NC(=O)C(NC(=O)C(CC(C)C)N(C)C(=O)[C@@H]2CC(O)CN2)C(C)OC(=O)[C@H](Cc2ccc(OC)cc2)N(C)C(=O)[C@@H]2CCCN2C(=O)[C@H](CC(C)C)NC(=O)C(C)C(=O)[C@H](C(C)C)OC(=O)CC1O (stereo not given in full) (H-[X9][ξNMeL][ξT][X4]LP[NMeY](Me); ester 3-C) | – | 2.02 µM and 1 µM | – | 0.11 µM and 0.126 µM | – | – | – | 0.335 µM and 1.01 µM | – | 0.101 µM and 0.0147 µM | 0.035 µM | – | – | 0.0496 µM and 0.0758 µM | 0.0369 µM | – | – | 0.266 µM | – | 1.18 µM and 0.159 µM
O=[N+]([O-])c1cccc(-c2nc3sccn3c2-c2ccnc(NCCCNS(=O)(=O)c3ccc(F)cc3)n2)c1 | 2.73 µM | > 100 µM | 2.72 µM | > 100 µM | – | – | 3.73 | > 100 µM | 1.06 | 2.45 µM | 2.55 µM | 6.69 µM | 2.06 | 5.43 µM | 4.98 µM | > 100 µM | 2.9 µM | > 100 µM | 2.9 µM | > 100 µM
CCN(CC)CCC(=O)Nc1cccc2c1C(=O)c1c(c(O)c3ccccc3c1O)C2=O | 17.7 µM | 57 µM | 35.4 µM | > 100 µM | 6.77 µM | 22.9 µM | 10.2 | 22.7 µM | 49.7 | > 100 µM | > 100 µM | > 100 µM | > 100 | > 100 µM | 9.64 µM | 26.1 µM | – | – | 19.3 µM | > 100 µM
COc1ccc(Cl)cc1N1C(=O)C(Cl)=C(Nc2cccc(O)c2)C1=O | 20.1 µM | 59.2 µM | 14 µM | 29.9 µM | 19.2 µM | 41.5 µM | 17.5 | 48 µM | 23 | 39.8 µM | – | – | – | – | – | – | 32.8 µM | > 100 µM | 19.9 µM | 59.9 µM
CCCCCCC(C)CC(CCCCCC)NCCOC(=O)c1ccc([N+](=O)[O-])cc1 (stereo not given) | – | 30.3 µM and 29.8 µM | 12.4 µM and 4.53 µM | 28.4 µM and 17.7 µM | – | 28.3 µM and 21 µM | – | 29.2 µM and 25.2 µM | – | 28.4 µM and 23.4 µM | – | – | – | 30.7 µM and 28.6 µM | – | 23.5 µM and 20.9 µM | – | 27.2 µM and 21.4 µM | – | 21.4 µM and 19 µM
CNC(=O)c1cc(Oc2ccc3nc(NC(=O)Nc4ccc(Cl)c(Cl)c4)sc3c2)ccn1 | – | – | 2.13 µM | 4.74 µM | 2.65 µM | > 100 µM | 1.83 | 3.46 µM | 2.24 | 5.58 µM | > 100 µM | > 100 µM | 2.56 | 5.97 µM | 2.15 µM | 6.43 µM | 3.3 µM | > 100 µM | – | –
CC1CCC2(OC1)OC1CC3C4CC=C5CC(OC6OC(CO)C(OC7OC(C)C(OC8OC(C)C(O)C(O)C8O)C(O)C7O)C(O)C6OC6OC(C)C(O)C(O)C6O)CCC5(C)C4CCC3(C)C1C2C (stereo not given) | – | 1.39 µM | – | 2.27 µM | – | 3.25 µM | – | 1.96 µM | – | 3.06 µM | – | – | – | 2.5 µM | – | 1.33 µM | – | 2.1 µM | – | 2.2 µM
C/C(=N\NC(N)=S)c1ccc2c(c1)OCO2 | – | > 100 µM | – | > 100 µM | – | – | – | > 100 µM | – | > 100 µM | – | > 100 µM | – | > 100 µM | – | – | – | > 100 µM | – | > 100 µM
COc1ccc(/C=C/C(=O)c2ccc(Nc3ncnc4ccccc34)cc2)cc1OC | 3.66 µM | > 100 µM | 6.24 µM | > 100 µM | 2.43 µM | 14.3 µM | 3.66 | > 100 µM | – | – | 20.7 µM | > 100 µM | 13.9 | 44.8 µM | 19.8 µM | > 100 µM | 13.9 µM | > 100 µM | 3.21 µM | 12.1 µM
O=C(CNC(=O)c1cccc2ccccc12)Nc1ccccc1Oc1cccc(O)c1 | 9.64 µM | > 25 µM | 1.56 µM | > 25 µM | 4.51 µM | > 25 µM | 8.41 | > 25 µM | 1.86 | > 25 µM | 1.31 µM | 10.6 µM | – | – | 17.6 µM | > 25 µM | 8.82 µM | > 25 µM | 21.4 µM | > 25 µM
O=C1CCC(c2nc3ccccc3o2)C(=O)N1 (stereo not given) | – | > 100 µM | – | > 100 µM | – | – | – | > 100 µM | – | > 100 µM | – | > 100 µM | – | > 100 µM | – | – | – | > 100 µM | – | > 100 µM
OCCN(CO)CN(CN(CO)CCO)c1nc(N(CN(CO)CCO)CN(CO)CCO)nc(N(CN(CO)CCO)CN(CO)CCO)n1 | 1.81 ng/mL | 131 ng/mL | 1.21 ng/mL | 2.91 ng/mL | 0.55 ng/mL | 0.901 ng/mL | – | – | – | – | 0.55 ng/mL | 0.859 ng/mL | – | – | 1.01 ng/mL | 3.23 ng/mL | 1.42 ng/mL | 5.03 ng/mL | 0.911 ng/mL | 15.2 ng/mL
O=C(Nc1ccc(C(F)(F)F)cc1[N+](=O)[O-])C(=O)C(C(=O)c1ccc2ccccc2c1)C1OC(=O)c2ccccc21 (stereo not given) | – | > 71.3 µM | – | 28.1 µM | – | – | – | 17.5 µM | – | 18.8 µM | – | 39.6 µM | – | 29.9 µM | – | – | – | 21.2 µM | – | 23.9 µM
CCCCCC(=O)N1c2ccccc2NC2=C(C(=O)CC(c3ccc(OC)c(OC)c3)C2)C1c1ccc(C(F)(F)F)cc1 (stereo not given) | > 100 µM | > 100 µM | – | – | 24.3 µM | > 100 µM | > 100 | > 100 µM | 62.8 | > 100 µM | > 100 µM | > 100 µM | > 100 | > 100 µM | 20.4 µM | > 100 µM | – | – | > 100 µM | > 100 µM
CC1C(=O)N=C2C(=CN(Cc3ccccc3)c3ccccc32)C(=O)N1C (stereo not given) | – | > 100 µM | – | > 100 µM | – | > 100 µM | – | > 100 µM | – | > 100 µM | – | – | – | > 100 µM | – | > 100 µM | – | – | – | > 100 µM
C[C@]12CC[C@H]3[C@@H](CCC4=CC(=O)CC[C@@H]43)[C@@H]1CC[C@@H]2OC1(O)C(=O)c2ccccc2C1=O | – | > 100 µM | – | > 100 µM | – | > 100 µM | – | > 100 µM | – | 35 µM | – | – | – | > 100 µM | – | > 100 µM | – | 2.79 µM | – | > 100 µM
O=[N+]([O-])c1ccc(Cc2nc3ccccc3s2)cc1 | – | > 100 µM | – | > 100 µM | – | – | – | > 100 µM | – | > 100 µM | – | > 100 µM | – | > 100 µM | – | – | – | > 100 µM | – | > 100 µM
Cc1sc2ncnc(Sc3nc4ccccc4[nH]3)c2c1C | 21.5 µM | 73 µM | 41.1 µM | > 100 µM | 13.6 µM | 67 µM | 18.8 | 43.2 µM | 22 | > 100 µM | 22.7 µM | 59.4 µM | 33.5 | 99 µM | 17.4 µM | 94.3 µM | – | – | 21.9 µM | 53.6 µM
